Results as given in US4618677A, “Substituted phenylalkyl-(piperazinyl or homopiperazinyl)alkyl-thiols and -thiocarbamates useful for the treatment of immunological, inflammatory, and allergic disorders” (Boehringer Ingelheim Limited, priority 1984, dated 1986).
Where “and” joins values, the source holds several entries; their conditions need not be identical. Equal values may be shown once. Where a name gives a salt, the structure may show the parent alone. Read-outs that look alike come from different tables or passages of the source.

Experiments:
[1] = system: rat peritoneal mast cells; assay: Inhibition of histamine release from rat peritoneal mast cells, Procedure B; assay type: cell-based; conditions: Mast cell, 1 h, read-out: In Vitro Inhibition of Histamine Release IC50 (μM) Procedure B
Protocol: B. Procedure for Determining Inhibition of Histamine Release from Rat Peritoneal Mast Cells
Harvest of Peritoneal Mast Cells: After the rats are sacrificed with ether, 20 ml of Minimum Essential Medium (MEM) containing 20 units/ml heparin is injected into the peritoneum. The abdomen is massaged for one minute and the lavage fluid collected. The peritoneal cells are centrifuged at 1800 rpm for 8 minutes in cold. After two washes with Tris A buffer, the cells are resuspended in Tris ACM buffer at 2-4×10^6 cells/ml.
Reaction mixture: The reaction is carried out in 12×75 mm plastic tubes at a total volume of 1.25 ml. The reaction mixture includes 0.5 ml (10-1000 μg) sheep anti-rat IgE or ovalbumin, 0.2 ml of the test compound in water at concentrations ranging from 10-1000 μM, 0.5 ml phosphatidylserine solution (20-60 μg to each tube), and 0.5 ml of cell suspension.
The concentration which causes a 50% inhibition (IC50) of histamine release is computed as in Part A.

guinea pig basophils = assay: Inhibition of histamine release from guinea pig basophils, Procedure C; assay type: cell-based; conditions: Cavia porcellus, 1 h, read-out: In Vitro Inhibition of Histamine Release IC50 (μM) Procedure C
Protocol: C. Procedure for Determining Inhibition of Histamine Release from Guinea Pig Basophils
1. In Vivo Sensitization: Male Hartley guinea pigs (200-300 gm) are immunized on day 0 with two 0.05 ml intradermal injections of 200 μg ovalbumin. Sensitized basophils are available between days 13-25 post-sensitization. This mode of sensitization favors IgE response.
2. Separation of Leukocytes: The method of Lett-Brown et al., Int. Arch. Allergy, Appl. Immun. 64, 241 (1981) is used. Animals are anesthetized with ether and are bled via cardiac puncture, with plastic syringes containing sufficient EDTA to provide a final concentration of 10 mM.
One part of 3% gelatin in saline at 37° C. is mixed with 2 parts of blood in a 16×150 mm tube. The cells are allowed to sediment at a 30° angle for 45 minutes in a 37° C. water bath. The leukocyte-rich plasma is collected and centrifuged at 150×g for 30 minutes at room temperature. The pelleted cells are washed in Hepes-buffered saline (HG) containing 4 mM EDTA and resuspended in Hepes-buffered saline containing […] and Ca^++ (HGCM) at 4-5×10^6 cells/ml.
3. Reaction Mixture: The reaction is carried out in 12×75 mm plastic tubes and a total volume of 1.2 ml which includes 0.5 ml of antigen, 0.2 ml of drug solution at concentrations ranging from 10-1000 μM and 0.5 ml of prewashed cell suspension. The reaction mixture is incubated in a 37° C. shaking water bath for 60 minutes. Upon completion of the reaction, the tubes are centrifuged and the supernatants collected. The protein is removed from the supernatants by precipitation with 0.2 ml of 8% perchloric acid.
4. Histamine Assay: Histamine release is measured by the automated fluorometric method of Siraganian, supra. The concentration which causes a 50 percent inhibition of histamine release is computed as in Part A.

histamine (H1) receptor = biological target: T1, histamine (H1) receptor (Cavia porcellus, UniProt P31389); assay: Antagonism of histamine-induced contraction of isolated guinea pig ileum; assay type: tissue-based; conditions: histamine final concentration 0.2 μg/ml, 50% reduction of contractile response, read-out: Inhibition IC50 (μM) of histamine-induced contraction
T1 construct: contraction of isolated guinea pig ileum; from tissue; host or cells: isolated guinea pig ileum
Description: Certain compounds of formula I inhibit in vitro the histamine-induced contraction of isolated guinea pig ileum and are useful in warm-blooded animals for antagonizing the action of histamine at the histamine (H1) receptor. Accordingly, these compounds can be employed in a conventional manner as antihistamine agents for the treatment of allergic disorders, for example allergic rhinitis, vasomotor rhinitis, allergic conjunctivitis, hay fever, urticaria, and food allergies.
The antagonism of the effects of histamine on the contraction of isolated guinea pig ileum by the compounds of formula I can be determined by the procedure of G. Possanza, A. Bauen, and P. Stewart, Int. Arch. Allergy Appl. Immunol., 49, 289 (1975). The degree of inhibition is determined as the difference between the contraction caused by histamine (final concentration 0.2 μg/ml) alone and that seen in the presence of both histamine and the test compound. The inhibitory activity of the test compound is expressed as that concentration of the compound which causes a 50% reduction of the contractile response (IC50).

[2] = system: human leukocytes (basophils); assay: Inhibition of IgE-mediated histamine release from human leukocytes (basophils), Procedure A; assay type: cell-based; conditions: Leukocyte, 1 h, read-out: In Vitro Inhibition of Histamine Release IC50 (μM) Procedure A
Protocol: A. Procedure for Determining Inhibition of Histamine Release from Human Leukocytes (Basophils)
Separation of Leukocytes: A modification of the method of L. Lichtenstein and A. Osler, J. Exp. Med. 120, 507 (1964) is used. Heparinized human blood (80-100 ml) is mixed with 20 ml of saline (0.2%) containing 0.6 gm of dextrose and 1.2 gm of dextran in propylene centrifuge tubes. The mixture is kept at ambient temperature for 60-90 minutes to allow the separation of erythrocytes from the platelet-leukocyte-rich supernate. The supernate is removed and centrifuged for 8 minutes at 110 ×g in cold. The leukocyte pellet is washed twice with Tris buffer and finally suspended in 150-180 ml Tris-ACM buffer at 1-2 ×10^6 cells/ml.
Reaction Mixture: The reaction is carried out in 12×75 mm plastic tubes at a total volume of 1.23 ml. The reaction medium includes 0.05 ml rabbit anti-human IgE (the antigen), 0.2 ml of the test compound in water at concentrations ranging from 10-100 μM, and 1.0 ml of the leukocyte suspension. The reaction mixture is incubated in a 37° C. shaking water bath for 60 minutes. Upon completion of the reaction, the tubes are centrifuged and the supernatants collected. The protein is removed from the supernatants by precipitation with 0.2 ml of 8% perchloric acid.
Histamine Assay: Histamine release is measured by the automated fluorometric method of W. Siraganian and W. Hook in Chapter 102 of the Manual of Clinical Immunology, 2nd Edition, edited by R. Rose and H. Friedman, published by the American Society for Microbiology, Washington, D.C., 1980. Percent inhibition is calculated as follows: [formula]
The concentration which causes a 50 percent inhibition (IC50) of histamine release is interpolated from a plot of percent inhibition versus logarithm of drug concentration.

[3] = from rat peritoneal mast cells, sheep anti-rat IgE or ovalbumin, 60 min at 37° C.
[4] = from guinea pig basophils (ovalbumin-sensitized), 60 min at 37° C., > = no response detected at highest dose indicated
[5] = from human basophils, rabbit anti-human IgE as antigen, 60 min at 37° C., > = no response detected at highest dose indicated

T1 sequence (P31389 whole entry): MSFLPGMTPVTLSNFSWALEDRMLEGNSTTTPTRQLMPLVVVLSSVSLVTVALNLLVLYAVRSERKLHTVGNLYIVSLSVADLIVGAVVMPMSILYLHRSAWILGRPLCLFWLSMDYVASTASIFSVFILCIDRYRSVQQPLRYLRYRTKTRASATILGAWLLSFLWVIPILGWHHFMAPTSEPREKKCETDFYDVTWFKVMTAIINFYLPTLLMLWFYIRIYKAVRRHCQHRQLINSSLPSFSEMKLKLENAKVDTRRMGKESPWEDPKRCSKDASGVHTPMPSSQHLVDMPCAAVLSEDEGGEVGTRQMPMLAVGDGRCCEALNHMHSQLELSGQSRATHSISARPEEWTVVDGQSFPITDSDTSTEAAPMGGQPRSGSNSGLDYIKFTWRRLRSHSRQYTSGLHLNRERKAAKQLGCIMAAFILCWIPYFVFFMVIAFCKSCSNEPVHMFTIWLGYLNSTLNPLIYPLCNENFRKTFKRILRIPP

SMILES | IC50 [1, 3] [µM] | IC50 (guinea pig basophils; [4]) [µM] | IC50 (histamine (H1) receptor) | IC50 [2, 5] [µM] | IC50 ([1]; Rattus norvegicus) [µM] | IC50 (guinea pig basophils) [µM] | IC50 ([2]; Homo sapiens) [µM]
COc1ccc(NC(=O)SCCCN2CCN(CCc3ccc(Cl)cc3)CC2)cc1 [Example 28, N-(4-Methoxyphenyl)-S-{3-[4-(4-chlorophenethyl)piperazin-1-yl]propyl}thiocarbamate dihydrochloride] | 7 | 40 | 0.12 µM and 0.09 µM | 5 |  |  | 
O=C(NC1CCCCC1)SCCCN1CCN(Cc2ccc(Cl)cc2)CC1 [Example 6, N-Cyclohexyl-S-{3-[4-(4-chlorobenzyl)piperazin-1-yl]propyl}thiocarbamate dihydrochloride] | 3 | 20 | 0.06 µM | 5 |  |  | 
O=C(Nc1ccccc1)SCCCN1CCN(Cc2ccc(Cl)cc2)CC1 [Example 7, N-Phenyl-S-{3-[4-(4-chlorobenzyl)piperazin-1-yl]propyl}thiocarbamate dihydrochloride] | 3 | 13 |  | 2.6 |  |  | 
SCCN1CCN(Cc2ccc(Cl)cc2)CC1 [Example 36, 2-[4-(4-Chlorobenzyl)piperazin-1-yl]ethanethiol dihydrochloride] |  |  |  |  | 5 | > 100 | 3
SCCCN1CCN(CCc2ccc(Cl)cc2)CC1 [Example 25, 3-[4-(4-Chlorophenethyl)piperazin-1-yl]propanethiol dihydrochloride] | 4 | 5 |  | 5 |  |  | 
